According to patent US20100168182A1, “COMPOUNDS AND COMPOSITIONS AS KINASE INHIBITORS” (IRM LLC, priority 2006, published 2010):

Legend:
[1] = biological target: T1, Ba/F3 cells transformed with human Tel-TrkA (ETV6-NTRK1) (Homo sapiens, UniProt P04629); assay: Inhibition of cellular TrkA dependent proliferation (Ba/F3 Tel-TrkA); assay type: cell-based; conditions: urea versus amide linkage
T1 construct: expressed in transfected cells; host or cells: Ba/F3 murine hematopoietic progenitor cell line; the other entry of the earlier key: ETV6 (P41212, Transcription factor ETV6)
Protocol: (§1) Inhibition of Cellular TrkA, trkB or TrkC Dependent Proliferation
(§2) The cell line used is the Ba/F3 murine hematopoietic progenitor cell line transformed with human Tel-TrkA, Tel-TrkB or Tel-TrkC cDNAs (Ba/F3 EN A/B/C). These cells are maintained in RPMI/10% fetal bovine serum (RPMI/F B S) supplemented with penicillin 50 μg/mL, streptomycin 50 μg/mL and L-glutamine 200 mM. Untransformed Ba/F3 cells are similarly maintained with the addition 5 ng/ml of murine recombinant IL3.
(§3) 50 μl of a Ba/F3 or Ba/F3 EN A/B/C cell suspension are plated in Greiner 384 well microplates (white) at a density of 2000 cells per well. 50 nl of serially diluted test compound (1 0-0.0001 mM in DMSO solution) is added to each well. […] The emited luminiscence is quantified using the Acquest™ system (Molecular Devices).
(§4) Compounds of the invention are tested for their antiproliferative effect on Ba/F3 cells expressing either Tel-TrkA, Tel-TrkB or Tel-TrkC and an additional panel of 34 selected diverse kinases activated by fusion to the dimerizing partners Bcr or Tel (Abl, AlK, BMX, EphA3, EphB2, FGFR2, FGFR3, FGFR4, FGR, FLT1, FLT3, FLT4, FMS, IGF1R, InsR, JAK1, JAK2, JAK3, KDR, Kit, Lck, Lyn, MER, MET, PDGFRb, RET, RON, Ros-1, Src, Syk, TIE2, TYK2, Tie1, ZAP70). […] The IC50 values of the compounds in the different cell lines were determined from the dose response curves obtained as describe above.

[2] = biological target: T2, Ba/F3 cells transformed with human Tel-TrkB (ETV6-NTRK2) (Homo sapiens, UniProt Q16620); assay: Inhibition of cellular TrkB dependent proliferation (Ba/F3 Tel-TrkB); assay type: cell-based; conditions: urea versus amide linkage
T2 construct: expressed in transfected cells; host or cells: Ba/F3 murine hematopoietic progenitor cell line; the other entry of the earlier key: ETV6 (P41212, Transcription factor ETV6)
Protocol: as §1, §2, §3, §4

[3] = tested on: Ba/F3 cells transformed with human Tel-TrkC (ETV6-NTRK3); assay: Inhibition of cellular TrkC dependent proliferation (Ba/F3 Tel-TrkC); assay type: cell-based; conditions: urea versus amide linkage
Protocol: as §1, §2, §3, §4

[4] = Measuring bioavailability: plasma concentration in mice; assay type: in vivo, male Balb/c mice; conditions: ratio compound 17 / compound A
Protocol: Five- to six-week old male Balb/c mice are housed at room temperature (18 to 22° C.) and humidity in the range 40-70%. The animal weights at the time of compound administration range from 20 to 25 grams. The mice are fed a normal diet and have free access to water at all times, before and during experiments. Fasted animals are studied on an infrequent basis. To maximize drug absorption via oral gavage and/or study food effects, animals are fasted the night before dosing and 4 hours thereafter. Animal experiments are performed according to the Animal Welfare Act and the Guide for the Care and Use of Laboratory Animals approved by the Institutional Animal Care and Use Committee (IACUC).
Test compounds are dissolved in a vehicle for dosing at a final concentration of 0.5 to 10 mg/mL. Test compounds are dosed intravenously via the lateral tail vein and orally using a gavage needle. Dosing procedures, dosing volumes, and the selection of dosing vehicles or formulations adhered to the Guidelines issued by the Novartis Pharmacology Council entitled “Preparation and Administration of Experimental Formulation in Pre-ESC Phase”. Briefly, i.v. doses are administered in solutions that are neutral and isotonic aqueous based and oral doses are administered in either solution (with or without co-solvent) or suspension.
Blood samples are drawn via retro orbital sinus. For ease of handling, animals are sometimes anesthetized under isoflurane vapor. Approximately five 50 μl samples of blood are removed each sampling time.
Pharmacokinetic parameters are calculated by non-compartmental regression analysis using Winnonlin 4.0 software (Pharsight, Mountain View, Calif., USA). The typical intravenous and oral dosing study in mice would results in the reporting of the following pharmacokinetic parameters: i.v. dosing: Vss, CL, AUC, Cmax, Tmax, Clast, Tlast and T1/2; and p.o. dosing: F, AUC, Cmax, Tmax, Clast, Tlast and T1/2.

T2 sequence (Q16620 538-822 limits assumed): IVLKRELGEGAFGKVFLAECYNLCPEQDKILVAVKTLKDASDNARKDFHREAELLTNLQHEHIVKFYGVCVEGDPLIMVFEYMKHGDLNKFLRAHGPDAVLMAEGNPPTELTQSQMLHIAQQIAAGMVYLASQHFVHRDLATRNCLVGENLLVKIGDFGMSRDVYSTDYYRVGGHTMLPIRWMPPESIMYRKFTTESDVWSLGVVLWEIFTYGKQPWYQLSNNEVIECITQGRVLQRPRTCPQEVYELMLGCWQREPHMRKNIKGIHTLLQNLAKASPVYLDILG
T1 sequence (P04629 510-796 limits assumed): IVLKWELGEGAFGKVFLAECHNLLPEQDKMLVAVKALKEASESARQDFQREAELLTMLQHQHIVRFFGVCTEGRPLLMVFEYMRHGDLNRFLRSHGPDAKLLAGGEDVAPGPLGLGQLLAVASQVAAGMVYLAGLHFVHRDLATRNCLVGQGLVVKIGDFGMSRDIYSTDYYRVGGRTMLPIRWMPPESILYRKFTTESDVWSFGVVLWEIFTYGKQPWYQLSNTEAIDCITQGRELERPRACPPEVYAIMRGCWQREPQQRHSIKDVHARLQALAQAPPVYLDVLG

Compound	melting point	potency for TrkA relative to the equivalent amide-linked compound (compound A) [1]	potency for TrkB relative to the equivalent amide-linked compound (compound A) [2]	potency for TrkC relative to the equivalent amide-linked compound (compound A) [3]	plasma concentration relative to compound A ([4]; at 30 minutes)	plasma concentration relative to compound A ([4]; at 1 hour)	plasma concentration relative to compound A ([4]; at 3 hours)	plasma concentration relative to compound A ([4]; at 5 hours)
O=C(Nc1cccc(Nc2ccc3c(c2)NC(=O)/C3=C\c2ccc[nH]2)c1)Nc1cccc(C(F)(F)F)c1 [Example 1, 1-{3-[2-oxo-3-(1H-pyrrol-2-ylmethylene)-2,3-dihydro-1H-indol-6-ylamino]phenyl}-3-(3-trifluoromethylphenyl)urea]	253 to 256 °C	–	–	–	–	–	–	–
O=C(Nc1cccc(Nc2ccc3c(c2)NC(=O)/C3=C\c2ccc[nH]2)c1)Nc1cc(F)c(F)cc1F [Example 3, 1-{3-[2-oxo-3-(1H-pyrrol-2-ylmethylene)-2,3-dihydro-1H-indol-6-ylamino]phenyl}-3-(2,4,5-trifluorophenyl)urea]	224 to 226 °C	–	–	–	–	–	–	–
O=C(Nc1cccc(Nc2ccc3c(c2)NC(=O)/C3=C\c2ccc[nH]2)c1)Nc1ccc(F)cc1F [Compound 17, 1-(2,4-Difluoro-phenyl)-3-{3-[2-oxo-3-(1H-pyrrol-2-ylmethylene)-2,3-dihydro-1H-indol-6-ylamino]-phenyl}-urea]	–	at least 132 fold	at least 132 fold	at least 132 fold	2.2 times	4.1 times	4.7 times	2.3 times
